In US20120076781A1, “METHODS OF TREATING CANCERS WITH HER3 ANTISENSE OLIGONUCLEOTIDES” (ENZON PHARMACEUTICALS, INC., priority 2009, published 2012):
Marks after values point to notes of the source that are not given here. In the oligonucleotide strings, read from the 5' end, every base follows the letter of its sugar. An asterisk marks phosphorothioate; unmarked linkages are phosphodiester. Other units and linkages are bracketed, terminal groups are in braces. A string of capitals states the bases alone. l = locked nucleic acid (LNA); [5mC] = 5-methylcytosine; d = 2'-deoxy (DNA)

Assays:
HER3 mRNA [1] = assay: HER3 mRNA knockdown in 15PC3 xenograft tumor, different dosing cycle; type: in vivo, human; settings: 76.3 x 4 mg/kg i.v., every third day
Experimental: (§1) To evaluate the knockdown efficacy of the HER3 oligomeric compounds in vivo, the female nude mice bearing 15PC3 xenografts developed by subcutaneous injection of 5×10^6 cells/mouse into the right axillary flank, were injected intravenously with the oligomers at various doses and injection schedules (i.e. single dose, qd, q3d, q4d). Scrambled oligomer SEQ ID NO: 236 served as a negative control. 24 hours after the last injection, the mice were euthanized and liver and tumor tissues were collected in RNAlater solution (Ambion). Total RNA was purified from the tissues and the levels of HER3 mRNA were determined by quantitative reverse transcription-real time PCR (qRT-PCR) using the QuantiTect Probe RT-PCR kit (Cat#: 204443; Qiagen). GAPDH mRNA served as an internal control.
(§2) The knockdown efficacy of oligomers was evaluated in vivo in nude mice bearing xenograft tumors derived from 15PC3 cells or A549 cells (NSCLC) or N87 cells (gastric carcinoma) using a similar protocol to the one described above in Example 11. Oligomers were administered by injection every third day in 2-4 doses. Tissues were harvested 3 or 4 days after the last injection.
(§3) Data in Tables 6 and 7 are presented as % HER3 mRNA or HIF-1 alpha mRNA relative to saline treated controls in liver and tumor samples after i.v. dosing of animals with the indicated oligomers.

Mouse HER3 mRNA = assay: HER3 mRNA knockdown in liver of nude mice bearing 15PC3 xenografts, qd x 5 (qRT-PCR); type: in vivo; settings: i.v.
Experimental: as §1
(§4) 200 ng of total RNA was used in the PCR reaction. The data analyses were performed by using the ABI-7500 PCR Fast System included software.
(§5) Data in Table 5 are presented as % HER3 mRNA levels relative to saline treated controls in liver and tumor samples after i.v. dosing of animals on 5 consecutive days with oligonucleotides in the doses indicated.

HIF-1 alpha mRNA = HIF-1 alpha mRNA in 15PC3 xenograft tumor, different dosing cycle; type: in vivo, human; settings: 76.3 x 4 mg/kg i.v., every third day
Experimental: as §1, §2, §3

HER3 mRNA [2] = assay: HER3 mRNA knockdown in A549 (NSCLC) xenograft tumor; type: in vivo, human; settings: 35 mg/kg, q4d x 3, i.v.
Experimental: as §1, §2, §3

HER3 mRNA [3] = assay: HER3 mRNA knockdown in liver of xenograft-bearing nude mice, different dosing cycle; type: in vivo, mouse
Experimental: as §1
as §2, with “Oligomers were administered by injection every third day in 2-4 doses.” left out
as §3

human HER3 mRNA [4] = assay: HER3 mRNA knockdown in 15PC3 xenograft tumor in nude mice, qd x 5 (qRT-PCR); type: in vivo; settings: i.v., relative to saline controls
Experimental: as §1, §4, §5

HER3 mRNA [5] = assay: HER3 mRNA knockdown in N87 (gastric carcinoma) xenograft tumor; type: in vivo, human; settings: 25 mg/kg, q3d x 5, i.v.
Experimental: as §1
as §2, with “Oligomers were administered by injection every third day in 2-4 doses.” left out
as §3

human HER3 mRNA [6] = assay: Down-regulation of HER3 mRNA in transfected HUH-7 cells, real-time PCR; type: cell-based; settings: 25 nM, HUH-7 cells (indicated by *)
Experimental: HUH7: The human hepatocarcinoma cell line was cultured in DMEM (Sigma)+10% fetal bovine serum (FBS)+2 mM Glutamax I+gentamicin (25 μg/ml)+1× Non Essential Amino Acids.
The cells were treated with oligonucleotides using the cationic liposome formulation LipofectAMINE 2000 (Gibco) as transfection vehicle. Cells were seeded in 6-well cell culture plates (NUNC) and treated when 80-90% confluent. Oligomer concentrations ranged from 1 nM to 25 nM final concentration. Formulation of oligomer-lipid complexes was carried out essentially as described by the manufacturer using serum-free OptiMEM (Gibco) and a final lipid concentration of 5 μg/mL LipofectAMINE 2000. […]
The sample content of human HER3, EGFR and HER2 mRNA was quantified using the human HER3, EGFR and HER2 ABI Prism Pre-Developed TaqMan Assay Reagents (Applied Biosystems cat. no. Hs00951444_ml (HER3), Hs00193306_ml (EGFR) and Hs00170433_ml (HER2) according to the manufacturer's instructions.
Glyceraldehyde-3-phosphate dehydrogenase (GAPDH) mRNA quantity was used as an endogenous control for normalizing any variance in sample preparation. The sample content of human GAPDH mRNA was quantified using the human GAPDH ABI Prism Pre-Developed TaqMan Assay Reagent (Applied Biosystems cat. no. 4310884E) according to the manufacturer's instructions. […]

CSGSCSASgSaStStSaSgSaSaSASCSCSt (l[5mC]*lG*l[5mC]*lA*dG*dA*dT*dT*dA*dG*dA*dA*lA*l[5mC]*l[5mC]*dT) [SEQ ID NO: 236, scrambled oligomer, negative control, reference compound]
Tumor HER3 mRNA relative to saline treated controls (HER3 mRNA [1]): 106 ± 6.6% | HER3 mRNA Liver (Mouse HER3 mRNA; 22.9 mg/kg): 81.4 ± 6.5 % of Sal ctrl | HER3 mRNA Liver (Mouse HER3 mRNA; 30 mg/kg): 87.6 ± 19 % of Sal ctrl | HER3 mRNA Liver (Mouse HER3 mRNA; 60 mg/kg): 86.5 ± 9.9 % of Sal ctrl | HER3 mRNA Liver (Mouse HER3 mRNA; 76.3 mg/kg): 78 ± 17 % of Sal ctrl | Tumor Hif1A mRNA relative to saline treated controls (HIF-1 alpha mRNA): 101 ± 13.8% | HER3 Tumor (HER3 mRNA [2]): 87.6 ± 11.9 % saline control | Liver HER3 mRNA relative to saline treated controls (HER3 mRNA [3]; 15PC3 xenograft mice, 76.3 x 4 mg/kg i.v., every third day): 115.9 ± 26.3% | HER3 Liver (HER3 mRNA [3]; A549 xenograft mice, 35 mg/kg, q4d x 3, i.v.): 97.5 ± 21.2 % saline control | HER3 mRNA Tumor (human HER3 mRNA [4]; 22.9 mg/kg): 119.3 ± 24.9% | HER3 mRNA Tumor (human HER3 mRNA [4]; 30 mg/kg): 101.2 ± 21.1% | HER3 mRNA Tumor (human HER3 mRNA [4]; 60 mg/kg): 95.5 ± 12.7% | HER3 mRNA Tumor (human HER3 mRNA [4]; 76.3 mg/kg): 100 ± 10.5%

TSASGScScStStStSgSaScScStSCSTSC (antisense lT*lA*lG*dC*dC*dT*dT*dT*dG*dA*dC*dC*dT*l[5mC]*lT*l[5mC]) [SEQ ID NO: 249, reference compound]
HER3 Liver (HER3 mRNA [3]; N87 xenograft mice, 25 mg/kg, q3d x 5, i.v.): 123 ± 4.5 % saline control | HER3 Tumor (HER3 mRNA [5]): 99.0 ± 8.9 % saline control

CSASTScSaScStScStSgSgStSgSTSGST (l[5mC]*lA*lT*dC*dA*dC*dT*dC*dT*dG*dG*dT*dG*lT*lG*lT; antisense) [SEQ ID NO: 195]
HER3: percentage down-regulation of mRNA relative to mock transfected cells (human HER3 mRNA [6]): 64.4%*
